Read-outs that look alike come from different tables or passages of the source.
Experiments:
[1] = system: THP-1 monocytes differentiated into macrophages; assay: Acute cytotoxicity, MTS reduction, THP-1 macrophages; assay type: cell-based, human; conditions: 48 h; for concentration producing acute toxicity: MTS; for cell damage (viability, MTS reduction): concentrations as high as 400 µM
Description: The human monocytic cell line THP-1 (ATCC: TIB-202) was grown as cell suspension in complete cell culture medium under standard growth conditions. Subculturing was performed by replacement of the medium when the cell density reached 8 × 10^5 cells/mL. Cell concentrations were not allowed to exceed 10^6 cells/mL. To differentiate THP-1 monocytes into macrophages, cells were grown in the presence of 200 nM phorbol-12-myristate-13-acetate (PMA; Sigma-Aldrich) for 72 h. For viability assessment, 8 × 10^4 cells per well were seeded in 200 µL complete cell culture medium containing 200 nM PMA in a 96-well plate and differentiated for 72 h under standard growth conditions. Thereafter, the medium was removed, the cells were washed twice with pre-warmed phosphate-buffered saline (PBS), and increasing concentrations of flame retardants or CdSO4 were added in 200 µL complete cell culture medium per well for 48 h. CellTiter96® AQueous One Solution (Promega, Switzerland) containing MTS (3-(4,5-dimethylthiazol-2-yl)-5-(3-carboxymethoxy-phenyl)-2-(4-sulfophenyl)-2H) as a water-soluble tetrazolium compound was used according to the manufacturer’s protocol. Absorption was detected at 490 nm.

[2] = system: Daphnia magna; assay: Acute daphnia immobilization test (OECD guideline 202); assay type: in vivo; conditions: for Immobile Daphnia after 48 h: 20 individuals; for daphnia viability: at concentrations ≤400 µM (abstract)
Description: Loading Num ber of I m m obile rate Replicat e individuals Da phnia
(mg/l) per test af t er 48 h
Suppl. Fig. 5. Freshwater microcrustacean toxicity test. Acute toxicity was determined in Daphnia magna according to the standardized OECD guidelines number 202 test, performed by BMG Engineering Ltd., Schlieren, Switzerland. Daphnia were cultured in aerated Elendt M4 medium at a constant temperature of 21°C under a 16:8 light/dark photoperiod. The water soluble fraction of the indicated concentrations of flame retardants were added for 48 h.
Mortality was assessed by the detection of movement analysis. Immobile Daphnia were defined as those animals displaying no movement within a 15 s period following shaking of […]

[3] = system: Desmodesmus subspicatus; assay type: cell-based
Description: Suppl. Fig. 6. Freshwater microalgae toxicity test. Acute toxicity was tested by assessing algal growth inhibition applying Desmodesmus subspicatus according to OECD guideline number 201. Growth inhibition tests were performed using an initial cell density of 5 x 10^3 cells/ml (= OD680 of 0.005). The cells were maintained in 250 mL flasks containing 100 mL of sterile OECD algal medium at 22°C at 130 rpm illuminated with 3000 lux. Cell density was detected photospectrometrically at λ680 nm in 24 h intervals in algae cultures treated with the respective flame retardants. Experiments were performed by BMG Engineering Ltd., […]
(1 picture or pasted object on this page, not shown here)

[4] = system: fully differentiated LUHMES cells; assay: Toxicity in mature central nervous system neurons (neurite mass, viability); assay type: cell-based, human; conditions: 48 h; for concentration evoking degeneration of neurites: day 6–8, all assays; for influence on neurites / viability: concentrations as high as 100 µM
Description: LUHMES cells are conditionally immortalized human fetal ventral mesencephalic neuronal precursor cells that were obtained by clonal selection. Differentiated LUHMES cells show a clear dopaminergic phenotype, which was described in detail previously (Schildknecht et al. [2009]; Scholz et al. [2011]). Cells were propagated in advanced DMEM/F12 (Gibco/Invitrogen, Darmstadt, Germany) with 1 × N2 supplement (Invitrogen), 2 mM L-glutamine (Gibco), and 40 ng/mL recombinant bFGF (R&D Systems, Minneapolis, MN, USA). The differentiation process was initiated by adding differentiation medium consisting of advanced DMEM/F12, 1 × N2 supplement, 2 mM L-glutamine, 1 mM dibutyryl cAMP (Sigma), 1 µg/mL tetracycline (Sigma), and 2 ng/mL recombinant human GDNF (R + D Systems). After 2 days, cells were trypsinized, collected in advanced DMEM/F12 medium, and seeded onto 24-well plates at a density of 160,000 cells/cm^2. The differentiation process was continued for 4 days. Fully differentiated LUHMES cells were treated with the tested flame retardants for 48 h from day 6 to 8 of differentiation. For visualization of morphology, cells were fixed with 4 % paraformaldehyde for 20 min at room temperature, permeabilized with 0.2 % Triton X-100, washed with PBS, blocked with 1 % BSA (Calbiochem, San Diego, CA, USA) in PBS for 1 h, and stained with a polyclonal anti-β-III-tubulin antibody (Sigma) in 1 % BSA/PBS at 4 °C overnight. After washing, secondary antibodies (anti-mouse-IgG, Alexa 488, Molecular Probes; 1:1000) in 1 % BSA/PBS were added for 1 h, after which nuclei were stained with Hoechst dye H-33342 (1 µg/mL) for 20 min. For visualization, an Olympus IX 81 microscope (Hamburg, Germany) equipped with an F-view CCD camera was used. For quantitative evaluation of the neurite area, β-III-tubulin-stained cells were analyzed using an automated microplate-reading microscope (Array-Scan II® HCS Reader, Cellomics, Pittsburgh, PA, USA) equipped with a Hamamatsu ORCA-ER camera (1024 × 1024 resolution; run at 2 × 2 binning). Nuclei were identified according to their intensity, size, area, and shape. A virtual area corresponding to the cell soma was defined around each nucleus. The total β-III-tubulin pixel area per field minus the soma areas in that field was defined as neurite mass.
[% of total activity ± SD]
[% of total activity± SD]
Suppl. Fig. 7. Toxicity of flame retar dants in central human neurons. Mature human dopaminergic neurons (LUHMES) were treated w ith the different flame retardants in the concentrations as indicated for 48 h from day 6 to day 8 of differentiation. a Cell viability was determined by the resazurin reduction and by the lact ate dehydrogenase release a ssays. b Intracellular levels of ATP and of reduced glutathione (GSH) were measured in parallel.

[5] = system: neuronal and non-neuronal cell models; assay: Synopsis of all in vitro assays applied in this work; assay type: cell-based, human; conditions: for IC50: Homo sapiens, read-out: average IC50 values; for concentration with cell type-independent cytotoxic properties: all cellular in vitro models; for cytotoxic effects: at concentrations higher than 100 µM
Description: IC50 values are defined by the concentration of the flame retardant investigated where the response was reduced by half. Log-transformed flame retardant concentration values and the respective response data were fitted to a four-parameter logistic equation: y=A+B-A/1+(x/C)^D The percent inhibition response data are represented by y; B = maximum of y; A = minimum of y; x = flame retardant concentration; C = IC50; D = Hill slope factor. The IC50 values were calculated from these sigmoidal dose–response curves utilizing Prism 5.0 (GraphPad, San Diego, CA, USA) software.

[6] = loading rate 10 mg/l, replicate A
[7] = loading rate 10 mg/l, replicate B
[8] = loading rate 100 mg/l, replicate A
[9] = loading rate 100 mg/l, replicate B
[10] = loading rate 1000 mg/l, replicate A
[11] = loading rate 1000 mg/l, replicate B
[12] = highest tested concentrations, water-soluble fraction of 1000 mg/L (approximately 2 mM)
[13] = at concentrations ≤400 µM (abstract)

Structure (SMILES)	concentration producing acute toxicity [1]	Immobile Daphnia after 48 h [2, 6]	Immobile Daphnia after 48 h [2, 7]	Immobile Daphnia after 48 h [2, 8]	Immobile Daphnia after 48 h [2, 9]	Immobile Daphnia after 48 h [2, 10]	Immobile Daphnia after 48 h [2, 11]	algae growth [3, 12]	concentration evoking degeneration of neurites [4]	IC50 [5]	concentration with cell type-independent cytotoxic properties [5]	cell damage (viability, MTS reduction) [1]	daphnia viability [2]	algae growth [3, 13]	influence on neurites / viability [4]	cytotoxic effects [5]	other results
O=P1(NCCOP2(=O)Oc3ccccc3-c3ccccc32)Oc2ccccc2-c2ccccc21 (stereo not shown) [ETA-DOPO, 6-(2-((6-oxido-6H-dibenzo[c,e][1,2]oxaphosphinin-6-yl)amino)ethoxy)-6H-dibenzo[c,e][1,2]oxaphosphinine 6-oxide]	> 20 µM	5%	0%	0%	0%	5%	0%	no effect	> 10 µM	20 to 100 µM	> 10 µM	–	–	–	–	–	–
Brc1ccc(Oc2cc(Br)c(Br)cc2Br)c(Br)c1 [PBDE-99, reference compound]	–	–	–	–	–	–	–	–	> 10 µM	–	–	no signs of cell damage	–	–	–	–	concentration with distinct neuro-selective cytotoxicity ([5]; abstract): ≥ 10 µM; concentration detrimentally influencing central and peripheral neurons ([5]; central and peripheral neurons): > 10 µM; toxicity in non-neuronal models ([5]; macrophages, lung epithelial cells, keratinocytes, concentrations as high as 400 µM): no significant toxicity
O=[PH]1Oc2ccccc2-c2ccccc21 (stereo not shown) [DOPO, 9,10-dihydro-9-oxa-10-phosphaphenanthrene-10-oxide]	–	–	–	–	–	–	–	–	–	–	–	no signs of cell damage	nor did they affect algae growth or daphnia viability	nor did they affect algae growth or daphnia viability	no influence	no comparable effects	influence on all parameters investigated ([5]; concentrations up to 400 µM): no influence
O=P1(OCCOP2(=O)Oc3ccccc3-c3ccccc32)Oc2ccccc2-c2ccccc21 (stereo not shown) [EG-DOPO, 6,6′-(ethane-1,2-diylbis(oxy))bis(6H-dibenzo[c,e][1,2]oxaphosphinine-6-oxide)]	> 20 µM	0%	0%	10%	0%	5%	10%	inhibited algae growth	> 10 µM	20 to 100 µM	> 10 µM	–	–	–	–	–	–
O=P1(NCCNP2(=O)Oc3ccccc3-c3ccccc32)Oc2ccccc2-c2ccccc21 (stereo not shown) [EDA-DOPO, 6,6′-(ethane-1,2-diylbis(azanediyl))bis(6H-dibenzo[c,e][1,2]oxaphosphinine-6-oxide)]	–	0%	0%	0%	0%	5%	10%	no effect	–	–	–	no signs of cell damage	nor did they affect algae growth or daphnia viability	nor did they affect algae growth or daphnia viability	no influence	no comparable effects	harmful effects ([5]; all assays utilized): no harmful effects
